Converted amounts (≈) assume the structure as drawn. Read-outs that look alike come from different tables or passages of the source.
Experiments:
Assay in all cases: MIC determination
Assay type in all cases: cell-based
[1] = tested on: S. aureus Micromyx USA 300; conditions: Staphylococcus aureus, USA300
[2] = tested on: S. pneumoniae ATCC 49619; conditions: Streptococcus pneumoniae, ATCC49619
[3] = tested on: S. aureus MMX 3035 cErmA; conditions: Staphylococcus aureus, MMX3035CERMA
[4] = tested on: S. aureus BAA 977 iErmA; conditions: Staphylococcus aureus, BAA977
[5] = tested on: P. aeruginosa MMX 3476 Δmex; conditions: Pseudomonas aeruginosa
[6] = tested on: S. aureus ATCC 29213; conditions: Staphylococcus aureus
[7] = tested on: C. difficile BAA 1805; conditions: Clostridioides difficile, BAA1805
[8] = tested on: P. aeruginosa MMX Mex parent strain; conditions: Pseudomonas aeruginosa
[9] = tested on: E. faecalis MMX 847 Macrolide-Resistant; conditions: Enterococcus faecalis
[10] = tested on: S. pneumoniae MMX 3028 cErmB; conditions: Streptococcus pneumoniae, MMX3028CERMB
[11] = tested on: E. coli ATCC 25922; conditions: Escherichia coli
[12] = tested on: P. aeruginosa ATCC 27853; conditions: Pseudomonas aeruginosa, ATCC27853
[13] = tested on: E. coli MMX 0121 ΔTolC; conditions: Escherichia coli
[14] = tested on: E. faecalis ATCC 29212; conditions: Enterococcus faecalis
[15] = tested on: B. fragilis ATCC 25285; conditions: Bacteroides fragilis, ATCC25285
[16] = tested on: S. pyogenes ATCC 19615; conditions: Streptococcus pyogenes, ATCC19615; S. pyogenes ATCC 19615; read-out: MIC
[17] = tested on: S. pyogenes MMX 946 Macrolide-Resistant; conditions: Streptococcus pyogenes
[18] = tested on: S. pneumoniae MMX 3031 cMefA; conditions: Streptococcus pneumoniae, MMX3031CMEFA
[19] = tested on: E. coli MMX TolC parent strain; conditions: Escherichia coli
[20] = tested on: H. influenzae ATCC 49247; conditions: Haemophilus influenzae, ATCC49247
[21] = tested on: E. coli MP-74 LptD mutant; conditions: Escherichia coli
[22] = tested on: E. coli MP-9 ΔTolC; conditions: Escherichia coli
[23] = tested on: K. pneumoniae ATCC 10031; conditions: Klebsiella pneumoniae, ATCC10031
[24] = tested on: S. aureus MP-549 msr(a) USA 300; conditions: Staphylococcus aureus, USA300, S. aureus MP-549 msr(a) USA 300
[25] = S. pneumoniae ATCC 49619, read-out: MIC
[26] = S. aureus MMX 3035 cErmA, read-out: MIC
[27] = ATCC29213, S. aureus ATCC 29213, read-out: MIC
[28] = S. pneumoniae MMX 3028 cErmB, read-out: MIC
[29] = ATCC25922, E. coli ATCC 25922, read-out: MIC
[30] = E. faecalis MMX 847 Macrolide-Resistant (MacRes), read-out: MIC
[31] = S. pyogenes MMX 946 Macrolide-Resistant (MacRes), read-out: MIC
[32] = H. influenzae ATCC 49247, read-out: MIC

| Structure (SMILES) | MIC [2, 25] [µg/mL] | MIC [3] [µg/mL] | MIC [4] [µg/mL] | MIC ([6]; ATCC29213) [µg/mL] | MIC [7] [µg/mL] | MIC [10] [µg/mL] | MIC ([11]; ATCC25922) [µg/mL] | MIC [16] [µg/mL] | MIC [18] [µg/mL] | MIC [20] [µg/mL] | MIC [21] [µg/mL] | MIC [22] [µg/mL] | MIC [3, 26] [µg/mL] | MIC [6, 27] [µg/mL] | MIC [11, 29] [µg/mL] | MIC ([14]; ATCC29212, read-out: MIC) [µg/mL] | MIC [23] [µg/mL] | MIC [24] [µg/mL] | MIC [9, 30] [µg/mL] | MIC [17, 31] [µg/mL] | also measured |
| --- | --- | --- | --- | --- | --- | --- | --- | --- | --- | --- | --- | --- | --- | --- | --- | --- | --- | --- | --- | --- | --- |
| Cc1ccc(S(=O)(=O)OCC2O[C@H]([C@H](NC(=O)[C@H]3NC[C@@H]4CC=CCO[C@H]43)[C@@H](C)O)C(O)[C@@H](O)[C@H]2O)cc1 (some centres unmarked) [FSA-211030] | 32 (≈ 57.5 µM) | > 64 | > 64 | > 64 | > 64 | > 64 | > 64 | 1 (≈ 1.8 µM) | 32 (≈ 57.5 µM) | > 64 | – | – | – | – | – | – | – | – | – | – | MIC [1]: > 64 µg/mL; MIC [5]: > 64 µg/mL; MIC [8]: > 64 µg/mL; MIC [9]: > 64 µg/mL; MIC [12]: > 64 µg/mL; MIC [13]: > 64 µg/mL; MIC ([14]; ATCC29212): > 64 µg/mL; MIC [15]: > 64 µg/mL; MIC [17]: > 64 µg/mL; MIC [19]: > 64 µg/mL |
| CSC1O[C@H]([C@H](NC(=O)[C@H]2NC[C@@H]3C[C@@H](c4cc(F)cc(F)c4)CCO[C@H]32)[C@H](C)Cl)C(O)[C@@H](O)[C@H]1O (some centres unmarked) [FSA-511080] | ≤ 0.06 | – | 0.25 (≈ 0.454 µM) | – | – | – | – | ≤ 0.06 | ≤ 0.06 | 16 (≈ 29 µM) | 16 (≈ 29 µM) | 4 (≈ 7.26 µM) | > 64 | 0.12 (≈ 0.218 µM) | > 64 | 0.5 (≈ 0.907 µM) | 16 (≈ 29 µM) | 0.25 (≈ 0.454 µM) | – | – | MIC ([9]; E. faecalis MMX 847 MacRes, read-out: MIC): > 64 µg/mL; MIC [10, 28]: 8 µg/mL (≈ 14.5 µM); MIC ([17]; S. pyogenes MMX 946 MacRes, read-out: MIC): 32 µg/mL (≈ 58.1 µM) |
| CSC1O[C@H]([C@H](NC(=O)[C@H]2NC[C@@H]3C=C(c4cccc(F)c4)CCO[C@@H]23)[C@H](C)Cl)C(O)[C@@H](O)[C@H]1O (some centres unmarked) [FSA-511071] | 0.25 (≈ 0.471 µM) | – | 2 (≈ 3.77 µM) | – | – | 64 (≈ 121 µM) | – | 0.5 (≈ 0.942 µM) | 0.5 (≈ 0.942 µM) | – | 64 (≈ 121 µM) | 64 (≈ 121 µM) | > 64 | 7 (≈ 13.2 µM) | > 64 | 4 (≈ 7.53 µM) | 64 (≈ 121 µM) | 1 (≈ 1.88 µM) | > 64 | > 64 | MIC [20, 32]: > 64 µg/mL |
| CSC1O[C@H]([C@H](NC(=O)[C@H]2NC[C@@H]3CC(N)CCO[C@H]32)[C@H](C)Cl)C(O)[C@@H](O)[C@H]1O (some centres unmarked) [FSA-510012] | – | – | > 64 | > 64 | > 64 | – | > 64 | 32 (≈ 70.5 µM) | – | > 64 | > 64 | > 64 | – | – | – | – | > 64 | > 64 | – | – | MIC [2]: > 64 µg/mL; MIC ([14]; ATCC29212): > 64 µg/mL |
| CSC1O[C@H]([C@H](NC(=O)[C@@H]2[C@@H]3OCC=CC[C@H]3CN2C)[C@H](C)Sc2ccc(-c3cccnc3)cc2)C(O)[C@@H](O)[C@H]1O (some centres unmarked) [FSA-213064] | ≤ 0.125 | 16 (≈ 26.6 µM) | 0.25 (≈ 0.415 µM) | – | – | – | – | ≤ 0.125 | 0.125 (≈ 0.208 µM) | – | – | 16 (≈ 26.6 µM) | – | 0.25 (≈ 0.415 µM) | > 64 | 32 (≈ 53.2 µM) | – | 0.25 (≈ 0.415 µM) | > 64 | 2 (≈ 3.32 µM) | MIC [10, 28]: 8 µg/mL (≈ 13.3 µM); MIC ([12]; P. aeruginosa ATCC 27853, read-out: MIC): > 64 µg/mL; MIC ([23]; K. pneumoniae ATCC 10031, read-out: MIC): 64 µg/mL (≈ 106 µM) |
| CSC1O[C@H]([C@H](NC(=O)[C@H]2NC[C@@H]3C=C(c4cc(F)cc(F)c4)CCO[C@@H]23)[C@H](C)Cl)C(O)[C@@H](O)[C@H]1O (some centres unmarked) [FSA-511074] | 0.25 (≈ 0.455 µM) | – | 2 (≈ 3.64 µM) | – | – | 64 (≈ 117 µM) | – | 0.5 (≈ 0.911 µM) | 0.25 (≈ 0.455 µM) | – | 64 (≈ 117 µM) | 64 (≈ 117 µM) | > 64 | 2 (≈ 3.64 µM) | > 64 | 4 (≈ 7.29 µM) | 64 (≈ 117 µM) | 1 (≈ 1.82 µM) | > 64 | > 64 | MIC [20, 32]: > 64 µg/mL |

From patent publication US11767341B2, “Lincosamide antibiotics and uses thereof” (President and Fellows of Harvard College, priority 2017, dated 2023)
